Reference: EP4745131A1, “PYRIMIDINAMINE NUAK INHIBITOR AS WELL AS PREPARATION METHOD THEREFOR AND USE THEREOF” (Technoderma Medicines Inc., priority 2023, dated 2025)

How the values were obtained:
NUAK1 = target: T1, NUAK1 (Homo sapiens, UniProt O60285); assay: Kinase activity assay, P81 filter paper binding hot-spot technique (33P-ATP, CHKtide substrate); format: biochemical; conditions: final concentration of NUAK1 10 nM; 20 µM CHKtide substrate; 33P-labeled ATP; 2 hours at room temperature; read-out: IC50 (nM) of Test Compounds against NUAK1
T1 sequence (O60285 1-661): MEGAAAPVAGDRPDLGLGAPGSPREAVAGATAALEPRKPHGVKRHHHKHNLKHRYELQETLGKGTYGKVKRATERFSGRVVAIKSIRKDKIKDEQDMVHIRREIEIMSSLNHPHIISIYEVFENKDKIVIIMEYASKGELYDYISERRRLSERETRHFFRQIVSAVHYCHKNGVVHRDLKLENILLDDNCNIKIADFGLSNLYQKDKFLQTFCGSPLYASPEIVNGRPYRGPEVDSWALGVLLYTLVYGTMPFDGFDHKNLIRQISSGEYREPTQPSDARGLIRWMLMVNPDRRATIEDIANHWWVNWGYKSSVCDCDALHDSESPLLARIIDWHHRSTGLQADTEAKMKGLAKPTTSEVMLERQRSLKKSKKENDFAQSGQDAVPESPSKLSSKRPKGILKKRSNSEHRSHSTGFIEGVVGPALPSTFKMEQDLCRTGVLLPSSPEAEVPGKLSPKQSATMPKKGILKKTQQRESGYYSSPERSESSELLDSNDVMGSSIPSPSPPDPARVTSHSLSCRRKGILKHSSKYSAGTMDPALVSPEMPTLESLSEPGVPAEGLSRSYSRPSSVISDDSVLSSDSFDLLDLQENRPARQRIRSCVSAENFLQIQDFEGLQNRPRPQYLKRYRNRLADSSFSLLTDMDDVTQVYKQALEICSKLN
Procedure: (§1) The inhibitory activity of the pyrimidinamine small molecules involved in the present application against NUAK1 and NUAK2 kinases was determined using a kinase activity assay based on the P81 filter paper binding hot-spot technique (Nat Biotechnol. 2011, 29:1039). A brief description is as follows:
(§2) The assay buffer system contained 20 mM Hepes (pH 7.5), 10 mM MgCl2, 1 mM EGTA, 0.01% Brij35 (L23 polyoxyethylene lauryl ether), 0.02 mg/mL BSA (bovine serum albumin), 0.1 mM Na3VO4, 2 mM DTT, and 1% DMSO.
(§3) • 1. A 20 µM substrate solution was prepared with freshly prepared test buffer and CHKtide peptide fragments (Sanchez Y. Science. 1997, 277: 1497-1501) were used as a substrate. • 2. Kinases were added and mixed gently (a final concentration of NUAK1 was 10 nM; and a final concentration of NUAK2 was 50 nM). • 3. Test compounds dissolved in 100% DMSO were each added to the above kinase reaction mixture solution via Acoustic Droplet Ejection (Echo550; nanoliter) and the mixture was incubated for 5 minutes at room temperature. • 4. ^33P-labeled ATP (a ratio of unlabeled ATP to labeled ATP was 25:1 or 2.5:1) was added. • 5. The mixture was incubated for 2 hours at room temperature. • 6. Kinase activity was tested using the P81 filter paper combined with hotspot technology.
(§4) The IC50 values of the test compounds against NUAK1/NUAK2 were calculated according to the above test. For specific results, see Table 1.
(§5) The IC50 values were calculated by using a formula derived from sigmoidal dose-response curve (variable slope): Y = Bottom + (Top-Bottom)/(1+10^((LogEC50-X)*Slope, where X is the logarithm of compound concentration, Y is the response (inhibition rate of kinase activity), and Y rises from bottom to top along the sigmoidal curve as the concentration increases. Table 1: IC50 (nM) of Test Compounds of the Present Application against NUAK1/NUAK2

NUAK2 = target: T2, NUAK2 (Homo sapiens, UniProt Q9H093); assay: as above; format: biochemical; conditions: final concentration of NUAK2 50 nM; 20 µM CHKtide substrate; 33P-labeled ATP; 2 hours at room temperature; read-out: IC50 (nM) of Test Compounds against NUAK2
T2 sequence (Q9H093 1-628): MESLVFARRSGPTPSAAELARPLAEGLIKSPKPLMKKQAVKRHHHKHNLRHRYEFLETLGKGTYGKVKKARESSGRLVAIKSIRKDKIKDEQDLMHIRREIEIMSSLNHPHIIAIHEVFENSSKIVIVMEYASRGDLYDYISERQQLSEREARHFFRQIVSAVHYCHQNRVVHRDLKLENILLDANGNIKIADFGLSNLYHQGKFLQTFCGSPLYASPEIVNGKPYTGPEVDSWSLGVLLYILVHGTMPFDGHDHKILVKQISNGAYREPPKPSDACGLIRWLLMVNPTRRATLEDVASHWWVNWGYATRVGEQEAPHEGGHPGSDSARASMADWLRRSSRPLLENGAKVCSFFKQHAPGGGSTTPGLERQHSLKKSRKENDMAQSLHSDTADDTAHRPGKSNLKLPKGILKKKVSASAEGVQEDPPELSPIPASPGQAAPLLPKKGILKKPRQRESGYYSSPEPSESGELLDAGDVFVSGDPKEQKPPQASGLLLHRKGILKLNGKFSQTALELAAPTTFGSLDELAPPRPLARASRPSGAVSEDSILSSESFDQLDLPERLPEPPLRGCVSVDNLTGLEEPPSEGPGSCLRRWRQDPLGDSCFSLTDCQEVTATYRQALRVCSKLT
Procedure: as §1, §2, §3, §4, §5

Molecule | IC50 (NUAK1) | IC50 (NUAK2)
1-(5-chloro-2-((2-methoxy-4-(piperidin-4-yl)phenyl)amino)pyrimidin-4-yl)-N-(cyanomethyl)-1H-pyrrole-3-carboxamide [TDM-181157] | 194 nM | 487 nM
CCS(=O)(=O)N1CCC(n2cc(-c3ccnc(Nc4cnn(C5CCNCC5)c4)n3)cn2)C1 (centres unmarked) [TDM-181134, 4-(1-(1-(Ethylsulfonyl)pyrrolidin-3-yl)-1H-pyrazol-4-yl)-N-(1-(piperidin-4-yl)-1H-pyrazol-4-yl)pyrimidin-2-amine] | 122 nM | 622 nM
COc1cc(N2CCN(C)CC2)ccc1Nc1nccc(-n2cc(C(=O)NCC#N)cn2)n1 [TDM-181139, N-(Cyanomethyl)-1-(2-((2-methoxy-4-(4-methylpiperazin-1-yl)phenyl)amino)pyrimidin-4-yl)-1H-pyrazole-4-carboxamide] | 474 nM | 991 nM
COc1cc(C2CCNCC2)ccc1Nc1nccc(-n2ccc(C(=O)NCC#N)c2)n1 [TDM-181152, N-(Cyanomethyl)-1-(2-((2-methoxy-4-(piperidin-4-yl)phenyl)amino)pyrimidin-4-yl)-1H-pyrrole-3-carboxamide] | 977 nM | 
N#CCNC(=O)c1ccn(-c2ccnc(Nc3cnn(C4CCNCC4)c3)n2)c1 [TDM-181153, N-(Cyanomethyl)-1-(2-((1-(piperidin-4-yl)-1H-pyrazol-4-yl)amino)pyrimidin-4-yl)-1H-pyrrole-3-carboxamide] | 84 nM | 107 nM
N#CCNC(=O)c1ccn(-c2ccnc(Nc3ccc(C4CCNCC4)cc3)n2)c1 [TDM-181154, N-(cyanomethyl)-1-(2-((4-(piperidin-4-yl)phenyl)amino)pyrimidin-4-yl)-1H-pyrrole-3-carboxamide] | 58 nM | 239 nM
CN1CCC(n2cc(Nc3nccc(-c4cnn(C(=O)C5CC5)c4)n3)cn2)CC1 [TDM-181169, Cyclopropyl(4-(2-((1-(1-methylpiperidin-4-yl)-1H-pyrazol-4-yl)amino)pyrimidin-4-yl)-1H-pyrazol-1-yl)methanone] | 209 nM | 495 nM
CN1CCN(c2ccc(Nc3ncc(Cl)c(-n4ccc(C(=O)NCC5CC5)c4)n3)cc2)CC1 [TDM-181171, 1-(5-Chloro-2-((4-(4-methylpiperazin-1-yl)phenyl)amino)pyrimidin-4-yl)-N-(cyclopropylmethyl)-1H-pyrrole-3-carboxamide] | 9 nM | 50 nM
CCCS(=O)(=O)Nc1cnn(-c2nc(Nc3cnn(C4CCNCC4)c3)ncc2Cl)c1 [TDM-181177, N-(1-(5-Chloro-2-(1-(piperidin-4-yl)-1H-pyrazol-4-ylamino)pyrimidin-4-yl)-1H-pyrazol-4-yl)propane-1-sulfonamide] | 9 nM | 72 nM

More lines, in order of falling IC50 (NUAK1), values ahead:

IC50 (NUAK1) | IC50 (NUAK2) | Molecule
607 nM |  | COc1cc(C2CCN(C)CC2)ccc1Nc1nccc(-n2ccc(C(=O)NCC#N)c2)n1 [TDM-181156, N-(cyanomethyl)-1-(2-((2-methoxy-4-(1-methylpiperidin-4-yl)phenyl)amino)pyrimidin-4-yl)-1H-pyrrole-3-carboxamide]
394 nM |  | COc1cc(C2CCN(C)C2)ccc1Nc1nccc(-n2ccc(C(=O)NCC#N)c2)n1 (centres unmarked) [TDM-181158]
337 nM | 419 nM | O=C(Nc1cnn(-c2ccnc(Nc3cnn(C4CCNCC4)c3)n2)c1)[C@@H]1CC1(F)F [TDM-181159, 2,2-Difluoro-N-(1-2-((1-(piperidin-4-yl)-1H-pyrazol-4-ylamino)pyrimidin-4-yl)-1H-pyrazol-4-yl)cyclopropane-1-carboxamide]
305 nM | 210 nM | N#CCNC(=O)c1cnn(-c2ccnc(Nc3cnn(C4CCNCC4)c3)n2)c1 [TDM-181140, N-(Cyanomethyl)-1-(2-((1-(piperidin-4-yl)-1H-pyrazol-4-yl)amino)pyrimidin-4-yl)-1H-pyrazole-4-carboxamide]
260 nM | 602 nM | COc1cc(N2CCN(C)CC2)ccc1Nc1nccc(-n2ccc(C(=O)NCC#N)c2)n1 [TDM-181146, N-(Cyanomethyl)-1-(2-((2-methoxy-4-(4-methylpiperazin-1-yl)phenyl)amino)pyrimidin-4-yl)-1H-pyrrole-3-carboxamide]
43 nM | 69 nM | COc1cc(N2CCN(C)CC2)ccc1Nc1ncc(Cl)c(-n2ccc(C(=O)NCC#N)c2)n1 [TDM-181155, 1-(5-Chloro-2-((2-methoxy-4-(4-methylpiperazin-1-yl)phenyl)amino)pyrimidin-4-yl)-N-(cyanomethyl)-1H-pyrrole-3-carboxamide]
34 nM | 265 nM | 2-(1-(piperidin-4-yl)-1H-pyrazol-4-yl)aminopyrimidin-4-yl)-1H-pyrazol-4-ylpropanesulfonamide [TDM-181135]
19 nM | 77 nM | CN1CCN(c2ccc(Nc3nccc(-n4ccc(C(=O)NCC#N)c4)n3)cc2)CC1 [TDM-181147, N-(Cyanomethyl)-1-(2-((4-(4-methylpiperazin-1-yl)phenyl)amino)pyrimidin-4-yl)-1H-pyrrole-3-carboxamide]
14 nM | 78 nM | CNC(=O)c1ccn(-c2nc(Nc3ccc(N4CCN(C)CC4)cc3)ncc2Cl)c1 [TDM-181170, 1-(5-Chloro-2-((4-(4-methylpiperazin-1-yl)phenyl)amino)pyrimidin-4-yl)-N-methyl-1H-pyrrole-3-carboxamide]
6 nM | 42 nM | CCCS(=O)(=O)Nc1cnn(-c2nc(Nc3cnc(C4CCNCC4)s3)ncc2Cl)c1 [TDM-181179, N-(1-(5-Chloro-2-((2-(piperidin-4-yl)thiazol-5-yl)amino)pyrimidin-4-yl)-1H-pyrazol-4-yl)propane-1-sulfonamide]
